Reference: patent US20150289513A1, “USE OF A COMPOUND COMPRISING A POLYFLUOROBENZYL MOIETY AGAINST INSECTICIDE-RESISTANT PESTS” (priority 2012, published 2015)

Test system: Anopheles funestus (metabolic-resistant strain FUMOZ-R)
Test: Glazed tile contact test, knock-down
Format: in vivo
Procedure: To produce a suitable preparation Transfluthrin was dissolved in acetone. The active compound solution was pipetted onto a glazed tile and, after drying, adult mosquitoes of the species: • Anopheles gambiae (target-site-resistant and metabolic-resistant strain: RSPH), • Anopheles gambiae (target-site-resitant and metabolic-resistant strain: Tiassalé), • Anopheles gambiae (tar et-site-resitant and metabolic-resistant strain: Akron), • Anopheles gambiae (target-site-resistant strain: VK7), and • Anopheles funestus (metabolic-resistant strain FUMOZ-R) were placed onto the treated tile (each strain was tested on separate tiles). The exposition time was 30 minutes.
0.25 hours, 0.5 hours, 1 hour, 2 hour, 3 hour, 4 hour and 24 hours after contact to the treated surface, the knock-down proportion of the test animals in % was determined. Here, 100% (effect) means that all mosquitoes have been killed; 0% (effect) means that none of the mosquitoes have been killed.
Similarly as outlined in example 2 for Transfluthrin, Metofluthrin efficacy was assessed against • Anopheles gambiae (target-site-resistant and metabolic-resistant strain: RSPH), • Anopheles funestus (metabolic-resistant strain FUMOZ-R), and • Culex quinquefasciatus (metabolic-resistant to DDT; strain P00), with the results shown in Tables 10 to 12. 0.25 hours, 0.5 hours, 1 hour, 2 hour, 3 hour, 4 hour and 24 hours after contact to the treated surface, the knock-down proportion of the test animals in % is depicted in Tables 10 to 12. 100% (effect) means that all mosquitoes have been killed; 0% (effect) means that none of the mosquitoes have been killed.
Similarly as outlined in example 2 for Transfluthrin, Metofluthrin efficacy was assessed against • Anopheles gambiae (target-site-resistant and metabolic-resistant strain: RSPH), • Anopheles funestus (metabolic-resistant strain FUMOZ-R), and with the results shown in Tables […]. 0.25 hours, 0.5 hours, 1 hour, 2 hour and 3 hours after contact to the treated surface, the knock-down proportion of the test animals in % is depicted in Tables 13 to 14. 100% (effect) means that all mosquitoes have been killed; 0% (effect) means that none of the mosquitoes have been killed.

How did the Effect % (0.064 /ha, 0.25 h after contact) turn out when CC=CC1C(C(=O)OCc2c(F)c(F)c(COC)c(F)c2F)C1(C)C (stereo not shown) [Metofluthrin, 2,3,5,6-Tetrafluoro-4-(methoxymethyl)benzyl 2,2-dimethyl-3-(prop-1-en-1-yl)cyclopropanecarboxylate] was run?
Its Effect % is 0%.

What about the Effect % (0.064 /ha, 0.5 h after contact) of the same molecule?
Its Effect % is 0%.

And the Effect % (0.064 /ha, 1 h after contact)?
The Effect % was 0%.

And the Effect % (0.064 /ha, 2 h after contact)?
The Effect % was 0%.

And the Effect % (0.064 /ha, 3 h after contact)?
Its Effect % is 0%.

What about the Effect % (0.064 /ha, 4 h after contact) of the same molecule?
The Effect % was 0%.

And the Effect % (0.064 /ha, 24 h after contact)?
Its Effect % is 20%.

What about the Effect % (0.32 /ha, 0.25 h after contact) of the same molecule?
The Effect % was 0%.

And the Effect % (0.32 /ha, 0.5 h after contact)?
Its Effect % is 0%.

What about the Effect % (0.32 /ha, 1 h after contact) of the same molecule?
The Effect % was 0%.

And the Effect % (0.32 /ha, 2 h after contact)?
The Effect % was 0%.

And the Effect % (0.32 /ha, 3 h after contact)?
The Effect % was 0%.

And the Effect % (0.32 /ha, 4 h after contact)?
The Effect % was 0%.

What about the Effect % (0.32 /ha, 24 h after contact) of the same molecule?
Its Effect % is 10%.

And the Effect % (1.6 /ha, 0.25 h after contact)?
The Effect % was 90%.

What about the Effect % (1.6 /ha, 0.5 h after contact) of the same molecule?
Its Effect % is 100%.

And the Effect % (1.6 /ha, 1 h after contact)?
The Effect % was 100%.

What about the Effect % (1.6 /ha, 2 h after contact) of the same molecule?
Its Effect % is 80%.

What about the Effect % (1.6 /ha, 3 h after contact) of the same molecule?
Its Effect % is 40%.

And the Effect % (1.6 /ha, 4 h after contact)?
Its Effect % is 40%.

What about the Effect % (1.6 /ha, 24 h after contact) of the same molecule?
Its Effect % is 70%.

What about the Effect % (8 /ha, 0.25 h after contact) of the same molecule?
Its Effect % is 100%.

And the Effect % (8 /ha, 0.5 h after contact)?
Its Effect % is 100%.

And the Effect % (8 /ha, 1 h after contact)?
The Effect % was 100%.

What about the Effect % (8 /ha, 2 h after contact) of the same molecule?
Its Effect % is 100%.

What about the Effect % (8 /ha, 3 h after contact) of the same molecule?
Its Effect % is 100%.

And the Effect % (8 /ha, 4 h after contact)?
Its Effect % is 100%.

And the Effect % (8 /ha, 24 h after contact)?
Its Effect % is 100%.

What about the Effect % (40 /ha, 0.25 h after contact) of the same molecule?
Its Effect % is 100%.

And the Effect % (40 /ha, 0.5 h after contact)?
Its Effect % is 100%.

What about the Effect % (40 /ha, 1 h after contact) of the same molecule?
The Effect % was 100%.

What about the Effect % (40 /ha, 2 h after contact) of the same molecule?
Its Effect % is 100%.

And the Effect % (40 /ha, 3 h after contact)?
The Effect % was 100%.

And the Effect % (40 /ha, 4 h after contact)?
The Effect % was 100%.

What about the Effect % (40 /ha, 24 h after contact) of the same molecule?
Its Effect % is 100%.

What about the Effect % (200 /ha, 0.25 h after contact) of the same molecule?
The Effect % was 100%.

And the Effect % (200 /ha, 0.5 h after contact)?
Its Effect % is 100%.

What about the Effect % (200 /ha, 1 h after contact) of the same molecule?
The Effect % was 100%.

And the Effect % (200 /ha, 2 h after contact)?
The Effect % was 100%.

And the Effect % (200 /ha, 3 h after contact)?
The Effect % was 100%.

And the Effect % (200 /ha, 4 h after contact)?
The Effect % was 100%.

And the Effect % (200 /ha, 24 h after contact)?
Its Effect % is 100%.

What about the Effect % (1000 /ha, 0.25 h after contact) of the same molecule?
Its Effect % is 100%.

What about the Effect % (1000 /ha, 0.5 h after contact) of the same molecule?
The Effect % was 100%.

And the Effect % (1000 /ha, 1 h after contact)?
The Effect % was 100%.

And the Effect % (1000 /ha, 2 h after contact)?
Its Effect % is 100%.

And the Effect % (1000 /ha, 3 h after contact)?
Its Effect % is 100%.

And the Effect % (1000 /ha, 4 h after contact)?
Its Effect % is 100%.

What about the Effect % (1000 /ha, 24 h after contact) of the same molecule?
The Effect % was 100%.
